According to patent US20150018418A1, “COMPOSITIONS AND METHODS FOR PROLONGING PREGNANCY” (priority 2013, published 2015):

Assays:
[1] = tested on: pregnant human female in PTL (uterine contractions); conditions: Example 1
Procedure: A pregnant person, at 29.5 weeks gestation, presented to the hospital in PTL during their first pregnancy. […] The patient's parent experienced PTL during one of their pregnancies, leading to premature birth of the patient at 30 weeks gestation. The patient's sibling also had experienced PTL with one of their pregnancies resulting in premature birth at 36 weeks gestation.
The patient was diagnosed with PTL and started on nifedipine 20 mg by mouth every 6 hours for tocolysis and magnesium sulfate 6 g as an intravenous infusion over 30 minutes followed by 2 g per hour for the next 12 hours for fetal neuroprotection. […] A course of steroids were also given for fetal lung maturation.
The patient then enrolled in a study conducted in advancement of the present disclosure and began therapy with gabapentin 300 mg, 3×/day (900 mg/day total). […] The following day the patient was discharged home only on gabapentin 300 mg, 3×/day and their previous outpatient dose of atenolol at 50 mg a day. […] They were instructed to increased their gabapentin dose to 600 mg, 3×/day.
Gabapentin was not administered while the patient was in the hospital. […] The patient was discharged.
Such contractions are the hallmark of preterm labor, which is known to result in premature birth in 60% of cases.

[2] = tested on: pregnant human in PTL (uterine contractions, uterine pressure); assay: Example 2: gabapentin maintenance therapy in a patient with preterm labor (case report); assay type: in vivo
Procedure: The cervix was dilated at 3.5-4 cm and regular uterine contractions were occurring at 11/hour. […] The uterine contractions slowly diminished and were completely resolved 14 hours after tocolysis was initiated.
The cervix was still 3.5-4 cm dilated at the time of enrollment. By the evening of the next day, the subject began feeling “uncomfortable” with a “pressure” feeling in their uterus. They were instructed the next day to increase their bedtime gabapentin dose to 600 mg and to continue 300 mg in the morning and in the afternoon. […] Two days later the subject reported feeling some recurrent uterine pressure especially noticeable for the hour before each gabapentin dose was taken. Gabapentin was increased to 600 mg, 3×/day and by the following day all of the pressure symptoms had resolved. The subject remained asymptomatic.
They continued on gabapentin 600 mg, 3×/day and remained asymptomatic. Three days later the subject noticed that their “water broke”. They were admitted to the hospital and confirmed to have preterm premature rupture of membranes (PPROM) with cervix still dilated to 4 cm. Gabapentin was continued at 600 mg, 3×/day. The subject remained asymptomatic throughout the next day; however, on the morning of the following day the subject began having regular uterine contractions about every 3-5 minutes and their cervix had now dilated to 7cm.
This discovery of gabapentin maintenance therapy resolving recurrent uterine contractions and pressure symptoms leading to a prolongation of pregnancy and preserving fetal survival is accordingly highly valuable to the public. Its value can be recognized at least in part because uterine contractions are an essential component of PTL, which precedes 40-50% of premature births (<37 weeks gestation) and as described above, premature birth occurs in 11.5% of all live births in the US, is the number one cause of neonatal mortality, and is responsible for half of the long-term neurological impairments in children. […]

[3] = tested on: preterm labor / premature birth; conditions: cited from earlier work
[4] = Serum half-life and clearance of gabapentin in humans; assay type: in vivo; conditions: expected from the serum half-life
Description: The patient was discharged.

[5] = nifedipine 20 mg by mouth every 6 hours, with i.v. magnesium sulfate for fetal neuroprotection

## NCC1(CC(=O)O)CCCCC1 [gabapentin, (1-aminomethyl)cyclohexaneacetic acid]
[1]; dose increased from 300 mg to 600 mg 3x/day, after the second 600 mg dose
  recurrent uterine cramping and uterine contraction feelings: fully resolved
[1]; gabapentin 300 mg 3x/day, resolved that same day
  side effects after the first dose: mild dizziness
[1]; gabapentin 600 mg 3x/day
  side effects from the higher dose: did not experience any side effects
  time remained stable without any uterine cramping: 16 days
[1]; gabapentin discontinued for 8 days
  outcome after discontinuation of maintenance therapy: associated with the IUFD
[2]; bedtime dose increased to 600 mg, 300 mg morning and afternoon, following morning
  uncomfortable pressure feeling in uterus: fully resolved
[2]; gabapentin increased to 600 mg 3x/day, by the following day
  recurrent uterine pressure symptoms: resolved
[3]; Fujii H, et al. Neurology 2013
  use during pregnancy and premature birth: associated with an increase in premature birth
[4]
  time to be fully cleared after discontinuation: about 30 hours

## O=S(=O)([O-])[O-].[Mg+2] [magnesium sulfate]
[1]; recurrent contractions, intravenous magnesium sulfate infusion 2 g/hour, gabapentin not administered
  time to resolution of all uterine contractions: ≤ 5 h

## COC(=O)C1=C(C)NC(C)=C(C(=O)OC)C1c1ccccc1[N+](=O)[O-] [nifedipine]
[1]; [5]
  time to complete resolution of uterine contractions after tocolysis was initiated: 12 h
[2]; [5]
  time to complete resolution of uterine contractions after tocolysis was initiated: 14 h

## CC(C)(C)NCC(O)c1cc(O)cc(O)c1 (stereo not shown) [terbutaline]
[3]; patients with recent or resolved PTL, versus placebo
  maintenance tocolysis for prolonging pregnancy: no more effective than maintenance placebo therapy
